Key:
PC3 = experiment: Prostate cancer xenograft study, IP dosing; assay type: in vivo, mouse
Protocol: The efficacy of compounds provided by the present disclosure was evaluated on a prostate cancer xenograft model—PC3. PC3 tumors were implanted into mice and the study was initiated after the volume of the tumors was 130 mm^3. The animals were IP dosed once a week or 3 times per week for 3 weeks with either vehicle or 1.25 mg/kg, 2.5 mg/kg, or 5 mg/kg of compound (5). The tumor volume, body weight, white blood cell count, and granulocyte count were determined during the study and 10 days after the final dose was administered.

HS5 = experiment: cells; assay type: cell-based; conditions: HS5, read-out: IC50 (in vitro toxicity)
794 = experiment: cells; assay type: cell-based; conditions: read-out: IC50 (in vitro toxicity)
MCF7 = experiment: In vitro cytotoxicity, MCF7; assay type: cell-based; conditions: Homo sapiens, MCF7, read-out: IC50 (in vitro toxicity)
U251 = experiment: cells; assay type: cell-based; conditions: Homo sapiens, U-251, read-out: IC50 (in vitro toxicity)
MM1.S = experiment: cells; assay type: cell-based; conditions: Homo sapiens, read-out: IC50 (in vitro toxicity)
mouse melanoma cells = experiment: Mouse melanoma efficacy in syngeneic mice
L363 = experiment: cells; assay type: cell-based; conditions: Homo sapiens, L-363, read-out: IC50 (in vitro toxicity)
[1] = tested on: human bone marrow cells (erythroid and myeloid progenitors); experiment: In vitro bone marrow toxicity, colony forming cell assays; conditions: 14 days in culture, methylcellulose media
KMS11 = experiment: cells; assay type: cell-based; conditions: Homo sapiens, KMS-11, read-out: IC50 (in vitro toxicity)
[2] = tested on: LLCPK cells conditionally expressing hLAT1; experiment: cells; conditions: 0.5 h, read-out: LC50, concentration of test compound at which the percent surviving cells was 50%
HS27A = experiment: cells; assay type: cell-based; conditions: HS-27A, read-out: IC50 (in vitro toxicity)
[3] = tested on: Human prostate cancer PC3 cells; conditions: mouse, in vivo
HCT116 = experiment: In vitro cytotoxicity, HCT116; assay type: cell-based; conditions: Homo sapiens, HCT-116, read-out: IC50 (in vitro toxicity)
1334 = experiment: In vitro cytotoxicity, 1334; assay type: cell-based; conditions: read-out: IC50 (in vitro toxicity)
Mia-PaCa2 = experiment: In vitro cytotoxicity, Mia-PaCa2; assay type: cell-based; conditions: Homo sapiens, MIA PaCa-2, read-out: IC50 (in vitro toxicity)
799E = experiment: In vitro cytotoxicity, 799E; assay type: cell-based; conditions: read-out: IC50 (in vitro toxicity)
PC3 tumors = experiment: Prostate cancer xenograft study, large tumor study; assay type: in vivo, mouse
Protocol: PC3 tumors were implanted into mice and the study was initiated after the volume of the tumors was 500 mm^3. Five (5) mg/kg compound (5) was administered by IP injection three times per week for two weeks. The tumor size, body weight, white cell count, and granulocyte count were measured.
In a counterpart study, mice in which the PC3 tumor size was at least 500 mm^3 were administered either 7.5 mg/kg or 10 mg/kg compound (5) three times a week for four weeks. In these studies, the mice were first administered a dose of either 2.5 mg/kg or 1.25 mg/kg, three times per week for three weeks. The tumor size, body weight, white cell count, and granulocyte count were measured. The tumor volume for the 7.5 mg/kg dosing regimen is resented in FIGS. 8A-8D, and for the 10 mg/kg dosing regimen in FIGS. 9A-9D.

MDA-MB-231 [4] = experiment: Triple negative breast cancer study, IV dosing; assay type: in vivo, mouse; conditions: IV once a week for 8 weeks
Protocol: The efficacy of compounds provided by the present disclosure was evaluated on a triple negative breast cancer xenograft model—MDA-MB-231. Human triple negative breast cancer cells were implanted into the flank of nude mice and the study was initiated after the volume of the tumors was 150 mm^3. The animals were IV dosed once a week for 8 weeks with either vehicle or 5 mg/kg of compound (5), or 20 mg/kg compound (7). The tumor volume, body weight, white blood cell count, and granulocyte count were determined during the study and 12 days after the final dose was administered.

Raji = experiment: cells; assay type: cell-based; conditions: Homo sapiens, read-out: IC50 (in vitro toxicity)
U266 = experiment: Orthotopic multiple myeloma study; conditions: mouse, in vivo
Protocol: The efficacy of compounds provided by the present disclosure was evaluated using an orthotopic luciferase human multiple myeloma model—U266. Human multiple myeloma cells were IV injected (1×10^6 cells) into NSG mice (female, 5-6 weeks-old, Jackson Labs). Treatment began when the BLI reached a log-phase growth, at about 12 to 14 days after injection. Nine mice were assigned to each arm of the study. The mice were dosed with vehicle (IP, once weekly for 3 weeks), bortezomid (BTZ, 0.8 mg/kg, IP twice weekly for 3 weeks), compound (5) (5 mg/kg, IV once weekly for 3 weeks), or compound (5) (10 mg/kg, IV once weekly for 3 weeks). The tumor volume was measured using bioluminescence imaging.

MDA-MB-231 [5] = experiment: cells; assay type: cell-based; conditions: Homo sapiens, MDA-MB-231, read-out: IC50 (in vitro toxicity)
42MGBA = experiment: cells; assay type: cell-based; conditions: read-out: IC50 (in vitro toxicity)
AMO1 = experiment: cells; assay type: cell-based; conditions: Homo sapiens, AMO1, read-out: IC50 (in vitro toxicity)
[6] = 5 mg/kg IP three times per week for two weeks
[7] = 7.5 mg/kg or 10 mg/kg dosing regimens

`Cc1ccc(N(CCCl)CCCl)cc1C[C@H](N)CC(=O)O` [Compound 5, (3S)-3-Amino-4-[5-[bis(2-chloroethyl)amino]-2-methyl-phenyl]butanoic Acid] was tested, and the tumor growth post-treatment (PC3; 1.25 mg/kg, 2.5 mg/kg, and 5 mg/kg regimens, IP) was “demonstrated a dose response”, the “growth of the tumors” value (PC3; 5 mg/kg dosing regimen, IP once a week or 3 times per week for 3 weeks) was “nearly completely suppressed” and the animal body weights (PC3; all dosing regimens) was “remained the same increased”. For the same compound, the “white blood cell count and granulocyte count” value (PC3; during and following treatment, all dosing regimens) was “remained within normal range”, the IC50 (HS5) was over 100 µM and the IC50 794 was under 100 µM. The IC50 (MCF7) was under 100 µM, the IC50 (U251) was under 100 µM and the IC50 (MM1.S) was under 100 µM. For the same compound, the “tumor growth after end of dosing” value (mouse melanoma cells; after dosing ended at 12 days) was “Tumors began to grow”, the tumor growth (mouse melanoma cells; dosed daily for 12 days) was “suppressed tumor growth” and the “white blood cell count” value (mouse melanoma cells; during treatment) was “remained within the normal range”. For the same compound, the IC50 (L363) was over 100 µM, the “toxicity to bone marrow progenitor cells (BFU-E, CFU-GM, Total CFC)” value [1] was “melphalan is more toxic to bone marrow progenitor cells than compound (5)” and the IC50 (KMS11) was over 100 µM. The CC50 [2] was under 1 µM, the IC50 (HS27A) was over 100 µM and the body weight [3] was “maintained weight”. For the same compound, the myelosuppression [3] was “not dectected”, the tumor growth suppression [3] was “dose-dependent tumor growth suppression” and the IC50 (HCT116) was under 100 µM. The IC50 1334 was under 100 µM, the IC50 (Mia-PaCa2) was under 100 µM and the IC50 (799E) was under 100 µM. For the same compound, the body weight (PC3 tumors; [6]) was “decreased”, the “cell counts (white cell, granulocyte)” value (PC3 tumors; [6]) was “remained within the normal range” and the body weights (PC3 tumors; [7]) was “remained about the same”. For the same compound, the “cell counts (white cell, granulocyte)” value (PC3 tumors; [7]) was “remained within the normal range”, the “tumor growth rate, large tumors” value (PC3 tumors; tumors 500 mm3, 5 mg/kg IP three times per week for two weeks) was “growth rate slowed for some large tumors” and the “PC3 tumor growth, large tumors” value (PC3 tumors; tumors at least 500 mm3, 7.5 mg/kg or 10 mg/kg three times a week for four weeks) was “slowed in many of the animals and in some the size of the tumor decreased”. For the same compound, the body weight (MDA-MB-231 [4]) was “maintained weight”, the myelosuppression (MDA-MB-231 [4]) was “not dectected” and the tumor growth suppression (MDA-MB-231 [4]; nude mice, 5 mg/kg compound (5), 20 mg/kg compound (7)) was “dose-dependent tumor growth suppression”. The IC50 (Raji) was under 100 µM, the “multiple myeloma tumor growth (bioluminescence imaging)” value (U266) was “dose-dependent suppression of multiple myeloma tumor growth” and the IC50 (MDA-MB-231 [5]) was under 100 µM. The IC50 (42MGBA) was under 100 µM and the IC50 (AMO1) was over 100 µM.

— patent US10017459B2, “β-substituted β-amino acids and analogs as chemotherapeutic agents and uses thereof” (Quadriga Biosciences, Inc., priority 2015, dated 2018)
